Test results as given in ChEMBL document CHEMBL1141837, “New steroidal alkaloids from the roots of buxus sempervirens” (1999).
Calls of active or inactive are those of the source. The calls are words filed in the database; no cut-off is given here.

Assays:
Assay type in all cases: functional
Lemna minor [1] = assay: Phytotoxicity against Lemna minor L. at 5 ppm
Lemna minor [2] = assay: Phytotoxicity against Lemna minor L. at 50 ppm
Lemna minor [3] = assay: Phytotoxicity against Lemna minor L. at 500 ppm

## CC(=O)O[C@H]1C[C@@H]2[C@H](CC[C@]3(C)[C@@H]([C@H](C)N(C)C)CC[C@@]23C)CC2=C[C@@H](O)[C@H](NC(=O)c3ccccc3)C(C)(C)[C@@H]21
Lemna minor [1]
  Activity: inactive
Lemna minor [2]
  Activity: inactive
Lemna minor [3]
  Activity: inactive

## C[C@@H]([C@H]1CC[C@@]2(C)[C@@H]3CC[C@@H]4C(=CC3=CC[C@]12C)CC[C@H](N)C4(C)C)N(C)C
Lemna minor [1]
  Activity: inactive
Lemna minor [2]
  Activity: inactive
Lemna minor [3]
  Activity: inactive

## CC(=O)O[C@H]1C[C@@H]2[C@@]3(CC4=C[C@@H](O)[C@H](NC(=O)c5ccccc5)C(C)(C)[C@@H]41)O[C@H]3C[C@]1(C)[C@@H]([C@H](C)N(C)C)CC[C@@]21C
Lemna minor [1]
  Activity: 57%
Lemna minor [2]
  Activity: 57%
Lemna minor [3]
  Activity: 86%

## CC(=O)O[C@H]1C[C@@H]2[C@@]3(CC4=C[C@@H](OC(C)=O)[C@H](NC(=O)c5ccccc5)C(C)(C)[C@@H]41)O[C@H]3C[C@]1(C)[C@@H]([C@H](C)N(C)C)CC[C@@]21C
Lemna minor [1]
  Activity: 57%
Lemna minor [2]
  Activity: 71%
Lemna minor [3]
  Activity: 86%

## CN[C@H]1CC[C@]23C[C@]24CC[C@]2(C)C(=O)CC[C@@]2(C)[C@@H]4CC[C@H]3C1(C)C
Lemna minor [1]
  Activity: inactive
Lemna minor [2]
  Activity: inactive
Lemna minor [3]
  Activity: inactive
